Results taken from US20090048340A1, “GROWTH HORMONE SECRETION REGULATOR” (AJINOMOTO CO., INC., priority 2006, published 2009).

Tests used:
[1] = test system: growth hormone secretion; experiment: Growth hormone secretion regulating function, intravenous administration of amino acid solutions; assay type: in vivo, shiba-goat (capra hircus); conditions: aspartic acid 0.75 mmol/kg, valine 1.0 mmol/kg, blood 6 h before to 12 h after administration, n=3
Description: The growth hormone secretion regulating function of amino acids to be used in the present invention was evaluated by investigating changes in growth hormone secretion caused by intravenous administration of amino acid solutions. The details are as follows.
Special grade aspartic acid (Ajinomoto Co., Inc.) and valine (Ajinomoto Co., Inc.) were used as L-type amino acid samples. The amino acids were dissolved in purified water or an aqueous solution of 5% carboxymethylcellulose and administered as aqueous solutions (pH 7.0 to 8.0).
Two- to four-year-old mature castrated male and female shiba-goats (25 to 35 kg), purchased from the farm of Tokyo University, were domesticated for about one week. Aspartic acid (0.75 mmol/kg), valine (1.0 mmol/kg), and a mixture thereof, prepared in the same way as above, were administered intravenously via a cannula placed in the jugular vein, and blood was collected continuously during a period between 6 hours before and 12 hours after administration every 15 minutes via the cannula placed in the jugular vein, followed by investigation of changes in growth hormone secretion (n=3). The concentrations of the growth hormone in blood were measured by radioimmunoassay based on a double antibody method.
The growth hormone and antibody used in the radioimmunoassay were purchased from National institute of Diabetes and Digestive and Kidney Diseases. The other procedures were performed based on a reference (Hashizume T et al., Animal Science Technology 62: 343-350). The minimum measured concentration was 1 ng/ml, while the maximum measured concentration was 512 ng/ml. The intra-assay variation and inter-assay variation were 11.6% and 12.3%, respectively.

[2] = test system: growth hormone secretion; experiment: Growth hormone secretion regulating function, oral administration of amino acid solutions; assay type: in vivo, shiba-goat (capra hircus); conditions: sodium aspartate monohydrate 5 mmol/kg, valine 5 mmol/kg, blood 6 h before to 12 h after administration, n=3
Description: Two- to four-year-old mature castrated male and female shiba-goats (25 to 35 kg), purchased from the farm of Tokyo University, were domesticated for about one week. Sodium aspartate monohydrate (5 mmol/kg, 861 mg/kg), valine (5 mmol/kg, 586 mg/kg), and a mixture thereof, prepared in the same way as Example 1, were administered orally to the shiba-goats, and blood was collected continuously during a period between 6 hours before and 12 hours after administration every 15 minutes via a cannula placed in the jugular vein, followed by investigation of changes in growth hormone secretion (n=3). The concentrations of the growth hormone in blood were measured by immunoassay in which europium was used.
The growth hormone and antibody used in the immunoassay were purchased from National institute of Diabetes and Digestive and Kidney Diseases. The other procedures were performed based on a reference (Sugino T et al., Biochemical and biophysical research communications 295: 255-60). The minimum measured concentration was 2 ng/ml, while the maximum measured concentration was 126 ng/ml. The intra-assay variation and inter-assay variation were 11.3% and 8.6%, respectively.

CC(C)[C@H](N)C(=O)O [valine]
no changes: amount of the growth hormone secreted in a pulse-like manner [1] | secretion patterns of the growth hormone secreted in a pulse-like manner at a certain frequency [1] | amount of the growth hormone secreted in a pulse-like manner [2] | secretion patterns of the growth hormone secreted in a pulse-like manner at a certain frequency [2]

N[C@@H](CC(=O)O)C(=O)O [aspartic acid]
no changes: amount of the growth hormone secreted in a pulse-like manner [1] | secretion patterns of the growth hormone secreted in a pulse-like manner at a certain frequency [1] | amount of the growth hormone secreted in a pulse-like manner [2] | secretion patterns of the growth hormone secreted in a pulse-like manner at a certain frequency [2]
